# Experimental data reported in article PMC9472360, “Adagrasib, a KRAS G12C inhibitor, reverses the multidrug resistance mediated by ABCB1 in vitro and in vivo” (Cell Communication and Signaling : CCS, 2022).
# Molecular target: T1, ABCB1 (P-glycoprotein/P-gp/MDR1) (Homo sapiens, UniProt P08183)
# T1 construct: full-length ABCB1 overexpressed in High Five insect cells; crude membranes
# Assay: vanadate-sensitive ATPase assay, inorganic phosphate release, ABCB1 membranes
# Type: biochemical
# Conditions: High Five membranes 100 µg/mL, 12 mM Mg-ATP, 37 °C, 0.01-5 µM
# T1 sequence (P08183 whole entry): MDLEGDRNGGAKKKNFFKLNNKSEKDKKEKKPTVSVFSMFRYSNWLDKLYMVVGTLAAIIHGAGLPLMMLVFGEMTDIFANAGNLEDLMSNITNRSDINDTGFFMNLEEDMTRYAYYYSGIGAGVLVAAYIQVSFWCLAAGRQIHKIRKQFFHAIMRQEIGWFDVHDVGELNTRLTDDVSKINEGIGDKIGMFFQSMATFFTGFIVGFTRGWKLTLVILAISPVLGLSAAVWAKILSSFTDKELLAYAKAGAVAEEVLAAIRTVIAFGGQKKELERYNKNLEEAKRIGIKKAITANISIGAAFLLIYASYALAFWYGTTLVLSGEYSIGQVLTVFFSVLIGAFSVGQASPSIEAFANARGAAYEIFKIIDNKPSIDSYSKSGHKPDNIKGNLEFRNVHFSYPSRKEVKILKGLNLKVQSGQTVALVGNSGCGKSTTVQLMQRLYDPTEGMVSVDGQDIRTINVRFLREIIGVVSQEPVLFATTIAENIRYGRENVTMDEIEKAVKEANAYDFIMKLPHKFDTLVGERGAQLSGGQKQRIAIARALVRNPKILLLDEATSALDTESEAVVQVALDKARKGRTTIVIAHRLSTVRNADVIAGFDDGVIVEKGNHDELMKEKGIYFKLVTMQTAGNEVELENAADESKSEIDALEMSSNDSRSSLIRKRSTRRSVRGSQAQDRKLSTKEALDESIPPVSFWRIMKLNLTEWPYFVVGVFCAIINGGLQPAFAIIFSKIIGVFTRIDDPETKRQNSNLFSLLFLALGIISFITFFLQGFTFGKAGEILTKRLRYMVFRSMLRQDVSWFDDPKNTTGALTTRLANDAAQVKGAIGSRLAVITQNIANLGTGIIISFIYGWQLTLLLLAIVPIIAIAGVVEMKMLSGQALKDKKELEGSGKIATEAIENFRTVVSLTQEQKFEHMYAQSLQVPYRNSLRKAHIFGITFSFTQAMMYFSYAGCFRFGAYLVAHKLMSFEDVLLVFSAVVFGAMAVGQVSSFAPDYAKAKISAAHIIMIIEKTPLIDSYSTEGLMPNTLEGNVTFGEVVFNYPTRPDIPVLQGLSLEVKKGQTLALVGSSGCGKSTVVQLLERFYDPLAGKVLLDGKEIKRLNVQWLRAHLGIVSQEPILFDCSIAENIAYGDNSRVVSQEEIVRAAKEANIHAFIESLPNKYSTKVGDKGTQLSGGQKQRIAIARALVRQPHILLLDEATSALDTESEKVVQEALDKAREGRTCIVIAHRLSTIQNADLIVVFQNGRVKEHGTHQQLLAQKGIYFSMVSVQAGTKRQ
smiles,measurement,value
C=C(F)C(=O)N1CCN(c2nc(OC[C@@H]3CCCN3C)nc3c2CCN(c2cccc4cccc(Cl)c24)C3)C[C@@H]1CC#N [MRTX849],ATPase stimulation,MRTX849- stimulated activity of ABCB1 ATPase was dose-dependent
